This is an account of results in patent US20210087232A1, “D-ENANTIOMERIC PEPTIDES FOR ANTI-INFLAMMATORY TREATMENT OF AMYOTROPIC LATERAL SCLEROSIS (ALS) AND OTHER DISEASES DRIVEN BY NEURO-INFLAMMATION” (FORSCHUNGSZENTRUM JUELICH GMBH, priority 2018, published 2021).

Where no end group is shown, it is not given here. [ ]: non-standard residue; d: D form.

This assay has as its system transgenic ALS mice (tg G93R SOD1 mice). The assay can be described thus: Treatment studies in transgenic ALS mice: behavioral and motor tests (open field, SHIRPA, pole, hind-leg grip strength, rotarod, hind-leg spread) and histological analyses. Particulars: two treatment studies. The assay is classed as in vivo. How it is done: To analyze the anti-inflammatory effect of RD2RD2 as a potential therapeutic for treating ALS, two treatment studies were carried out in transgenic ALS mice (tg G93R SOD1 mice).

For “ptlhthnrrrrrptlhthnrrrrr ([dP][dT][dL][dH][dT][dH][dN][dR][dR][dR][dR][dR][dP][dT][dL][dH][dT][dH][dN][dR][dR][dR][dR][dR]) [RD2RD2]”, where the note is “behavioral and motor tests”, the disease onset entry is given as “delays disease onset” and the disease progression entry is listed as “slows disease progression”. Also, the inflammatory reactions entry (histological analyses) is “reduces inflammatory reactions”.
